According to US9062088B2, “CDK-inhibiting pyrrolopyrimidine carboxamide derivative or pharmaceutically acceptable salt thereof, and pharmaceutical composition containing the same as active ingredient for preventing or treating hepatocellular carcinoma” (SNU R&DB Foundation, priority 2010, dated 2015):
“And” between values parts separate entries of the source, which are not always exact repeats. Equal values may be shown once.

How the values were obtained:
SNU-354 cells [1] = test: MTT assay, cell viability; format: cell-based; details: Homo sapiens, SNU-354, read-out: Cell viability (%)
Experimental: Cell viability was measured by MTT assay. SNU-354 cells in the log phase of cell growth curve were distributed in a 24-well plate at the density of 2×10^4 cells/well. […] After allowing enough time for reaction, MTT reagent (MTT dissolved in PBS at the concentration of 5 mg/mL) (Sigma-Aldrich, USA) was added to each well, followed by reaction at 37° C. for 3 hours. Then, the supernatant was eliminated and the precipitated formazan crystals were dissolved in dimethyl sulfoxide, followed by measurement of absorbance with ELISA plate reader.

SNU-354 cells [2] = test: 3H-thymidine incorporation assay; format: cell-based, human; details: 18˜24 hours
Experimental: SNU-354 cells were distributed in a 6-well plate at the density of 5×10^4 cells/well, followed by culture in FBS-free medium for 24 hours. 24 hours later, the medium was replaced with the fresh one supplemented with FBS, the compounds of Examples 1 and 2 at different concentrations and 1 μCi/mL [^3H]dT (GE Healthcare, UK). 18˜24 hours later, the cells were washed with cold PBS and then fixed with cold 5% trichloroacetic acid. DNA was lysed in […] sodium hydroxide at 37° C. for 1 hour. Then, [^3H]dT incorporated during intracellular DNA synthesis was measured by LSC (liquid scintillation counting). Intracellular DNA synthesis measured above was used as index for the evaluation of cell viability.

SNU-354 cells [3] = test: Flow cytometry, sub G1 ratio change (Experimental Example 3); format: cell-based, human; details: 10 μM, 24 hours, vehicle = 1.0
Experimental: SNU-354 cells were seeded in a 90 mm dish, to which vehicle and the compounds of Examples 2˜6 were treated at the concentration of 10 μM each for 24 hours. The cells were collected and washed with cold PBS, followed by reaction in 500 μl of cold 70% ethanol at 4° C. for overnight to fix the cells. The cells were washed with 500 μl of PBS three times, followed by reaction with 500 μl of PBS containing 50 μg/mL propidium iodide (P1) and 50 μl of 1 mg/mL RNAse A at room temperature for 30 minutes in the darkness. Fluorescence of the P1 stained cell was measured by using FACS caliber flow cytometer and cell quest program (Becton Dickinson Immunocytometry Systems, CA, USA). Sub G1 ratio changes of SNU-354 cells induced by the compounds were measured by FACS analysis.

[4] = test system: caspase-3 activity in SNU-354 cells; test: Measurement of caspase-3 activity (Experimental Example 4); format: cell-based, human; design: unit not given here
Experimental: SNU-354 cells treated with the compounds of Example 1˜Example 6 were lysed with lysis buffer (0.5% triton X-100, 20 mM Tris-HCl (pH 7.5), 2 mM magnesium chloride, 1 mM DTT, 1 mM EGTA, 50 mM β-glycerophosphate, 25 mM sodium fluoride, 1 mM Na3VO4, 2 μg/mL leupeptin, 2 μg/mL pepstatin A, 100 μg/mL phenylmethylsulfonyl fluoride, 1 μg/mL antipain). The protease analysis buffer necessary for the reaction (20 mM HEPES (pH 7.5), 10% glycerol, 2 mM DTT) was mixed with 20 μM Ac-DEVD-AMC (BD Biosciences, CA, USA) and cell lysates, followed by reaction at 37° C. for 1 hour. Upon completion of the reaction, caspase-3 activity was measured at 380 nm of excitation and 460 nm of emission with spectrofluorometer (TECAN, Switzerland) and the results are shown in FIG. 25 and Table 12.

Cdk7/cyclin H/MAT1 = biological target: T1, Cdk7/cyclin H/MAT1 (Homo sapiens, UniProt P50613); test: In vitro kinase assay of Cdk7, RNA Pol II-CTD-GST substrate; format: biochemical; details: 0 nM = 100
T1 construct: purchased Upstate
T1 sequence (P50613 whole entry): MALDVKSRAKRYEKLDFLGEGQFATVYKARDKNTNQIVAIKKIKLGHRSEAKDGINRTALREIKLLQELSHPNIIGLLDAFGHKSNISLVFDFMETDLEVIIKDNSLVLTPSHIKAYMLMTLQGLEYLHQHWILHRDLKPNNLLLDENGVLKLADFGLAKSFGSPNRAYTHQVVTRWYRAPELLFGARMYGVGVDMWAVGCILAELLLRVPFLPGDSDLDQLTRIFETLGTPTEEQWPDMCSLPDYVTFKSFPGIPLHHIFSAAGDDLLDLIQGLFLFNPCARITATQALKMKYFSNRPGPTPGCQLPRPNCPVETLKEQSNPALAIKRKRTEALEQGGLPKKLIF
T1 sequence (P51946 whole entry partner): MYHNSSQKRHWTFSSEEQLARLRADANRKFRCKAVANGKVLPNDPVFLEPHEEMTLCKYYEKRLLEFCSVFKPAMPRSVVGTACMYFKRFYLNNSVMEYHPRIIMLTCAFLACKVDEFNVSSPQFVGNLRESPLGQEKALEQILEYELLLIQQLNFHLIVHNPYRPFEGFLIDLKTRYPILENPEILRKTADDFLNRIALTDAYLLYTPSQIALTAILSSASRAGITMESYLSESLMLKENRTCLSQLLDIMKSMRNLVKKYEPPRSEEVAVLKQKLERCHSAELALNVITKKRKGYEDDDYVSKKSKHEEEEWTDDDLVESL
T1 sequence (P51948 whole entry partner): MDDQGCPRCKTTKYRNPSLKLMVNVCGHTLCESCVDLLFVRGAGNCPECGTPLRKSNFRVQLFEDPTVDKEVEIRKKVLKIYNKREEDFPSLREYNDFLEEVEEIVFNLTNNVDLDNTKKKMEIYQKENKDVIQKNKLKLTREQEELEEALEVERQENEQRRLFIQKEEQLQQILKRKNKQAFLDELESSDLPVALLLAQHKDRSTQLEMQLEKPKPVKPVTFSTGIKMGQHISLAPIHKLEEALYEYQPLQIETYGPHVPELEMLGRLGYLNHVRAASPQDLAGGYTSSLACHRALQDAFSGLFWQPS
Experimental: (§1) To kinase assay buffer were added RNA Pol II-CTD-GST protein (Jena Bioscience, Germany) as a substrate, Cdk9/cyclin T1 or Cdk7/cyclin H/MAT1 recombinant protein (Upstate) as an enzyme, 2.5 μCi [γ-32P]ATP, and 100 μM MgAc/ATP. The total reaction volume was adjusted to 50 μl. Kinase assay reaction was induced at 30° C. for 20 minutes. Upon completion of the reaction, electrophoresis was performed on 8% SDS-polyacrylamide gel. The activities of Cdk7 and Cdk9 over the concentrations of the compounds of Example 1 and Example 2 were confirmed by autoradiography and the results are shown in FIG. 5˜FIG. 8 and Table 3.
(§2) The intensity of bands was analyzed by densitometry (GS-800, Bio-Rad).

Cdk9/cyclin T1 = biological target: T2, Cdk9/cyclin T1 (Homo sapiens, UniProt P50750); test: In vitro kinase assay of Cdk9, RNA Pol II-CTD-GST substrate; format: biochemical; details: 0 nM = 100
T2 construct: purchased Upstate
T2 sequence (P50750 whole entry): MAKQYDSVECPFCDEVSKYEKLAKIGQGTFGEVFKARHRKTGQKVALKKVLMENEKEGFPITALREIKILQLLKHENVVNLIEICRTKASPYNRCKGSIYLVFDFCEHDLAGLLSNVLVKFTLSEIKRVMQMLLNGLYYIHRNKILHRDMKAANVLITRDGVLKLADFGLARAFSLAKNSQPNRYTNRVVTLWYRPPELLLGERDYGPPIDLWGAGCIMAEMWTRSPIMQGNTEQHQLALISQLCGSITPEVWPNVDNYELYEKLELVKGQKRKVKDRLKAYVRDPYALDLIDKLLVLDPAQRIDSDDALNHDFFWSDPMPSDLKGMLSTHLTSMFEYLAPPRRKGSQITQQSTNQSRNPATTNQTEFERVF
T2 sequence (O60563 whole entry partner): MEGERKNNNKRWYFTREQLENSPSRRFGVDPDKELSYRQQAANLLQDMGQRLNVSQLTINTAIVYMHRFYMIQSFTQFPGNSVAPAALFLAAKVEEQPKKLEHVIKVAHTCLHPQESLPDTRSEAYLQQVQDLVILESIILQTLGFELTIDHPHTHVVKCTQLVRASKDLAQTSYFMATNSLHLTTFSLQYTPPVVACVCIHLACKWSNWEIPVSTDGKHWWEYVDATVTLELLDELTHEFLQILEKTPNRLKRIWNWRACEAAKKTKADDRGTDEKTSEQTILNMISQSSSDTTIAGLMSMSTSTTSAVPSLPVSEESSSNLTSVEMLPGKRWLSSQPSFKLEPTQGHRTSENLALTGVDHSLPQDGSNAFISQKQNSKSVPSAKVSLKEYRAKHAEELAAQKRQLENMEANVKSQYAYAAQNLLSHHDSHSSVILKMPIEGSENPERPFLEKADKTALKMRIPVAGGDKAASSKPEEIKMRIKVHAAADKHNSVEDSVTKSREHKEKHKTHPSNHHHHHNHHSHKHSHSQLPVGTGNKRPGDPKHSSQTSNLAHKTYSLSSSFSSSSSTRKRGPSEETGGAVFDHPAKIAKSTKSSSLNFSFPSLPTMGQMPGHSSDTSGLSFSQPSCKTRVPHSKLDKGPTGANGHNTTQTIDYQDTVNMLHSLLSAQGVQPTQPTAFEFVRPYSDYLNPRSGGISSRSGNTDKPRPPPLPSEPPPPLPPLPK
Experimental: as §1, §2

Cdk7 = test: Western blotting of Cdk7 activity (phospho RNA Pol II Ser 5); format: cell-based, human; details: 0 nM = 100
Experimental: (§3) After treating the compound of Example 2 to SNU-354 cells, cell pellet was lysed with lysis buffer (0.5% triton X-100, 20 mM Tris-HCl (pH 7.5), 2 mM magnesium chloride, 1 mM DTT, 1 mM EGTA, 50 mM β-glycerophosphate, 25 mM sodium fluoride, 1 mM Na3VO4, 2 μg/mL leupeptin, 2 μg/mL pepstatin A, 100 μg/mL phenylmethylsulfonyl fluoride, and 1 μg/mL antipain) at 4° C. for 1 hour, followed by quantification of protein. A proper amount of protein was electrophoresed on SDS-PAGE gel and then transferred onto polyvinylidene difluoride membrane (Millipore Co., Bedford, Mass.). The membrane was reacted in inhibiting solution (PBS, 5% skim milk, 0.1% tween-20) at room temperature for 1˜2 hours. The membrane was reacted with the primary antibody (goat anti-phospho-Rb, rabbit anti-nucleolin) diluted in the inhibiting solution (1:1000). Then, the membrane was washed with PBST, followed by reaction with the proper secondary antibody (horseradish peroxidase (HRP) conjugated) at room temperature for 1 hour.
(§4) Experiment was performed by the same manner as described in step 2 of Experimental Example 1 except that rabbit anti-phospho RNA Pol II (Ser 5) and rabbit anti-phospho RNA Pol II (Ser 2) (from Bethyl, TX, USA) were used as primary antibodies. The results are shown FIG. 9˜FIG. 12, and Table 4 and Table 5.

Cdk9 = test: Western blotting of Cdk9 activity (phospho RNA Pol II Ser 2); format: cell-based, human; details: 0 nM = 100
Experimental: as §3, §4

Cn1cnc2c(NCc3ccccc3)nc(NCCO)nc21 [Olomoucine, olomoucine, reference compound]
viability at 0.5 µM (SNU-354 cells [1]): 98.9%
viability at 1 µM (SNU-354 cells [1]): 99.9%
viability at 2 µM (SNU-354 cells [1]): 99.9%
viability at 5 µM (SNU-354 cells [1]): 98.5%
viability at 10 µM (SNU-354 cells [1]): 101%
viability at 50 µM (SNU-354 cells [1]): 96%
^3H-thymidine incorporation (%) (SNU-354 cells [2]; 5.0 μM): 99.7%
^3H-thymidine incorporation (%) (SNU-354 cells [2]; 10.0 μM): 96.3%
^3H-thymidine incorporation (%) (SNU-354 cells [2]; 50.0 μM): 77.2%

CC(C)(C)C(=O)OC[C@@H]1O[C@H](n2cnc(N)c3c(C(N)=O)c(Br)nc2-3)[C@H](O)[C@H]1O [Example 3, ((2S,3R,4R,5S)-5-(4-amino-6-bromo-5-carbamoyl-1H-pyrrolo[2,3-d]pyrimidin-1-yl)-3,4-dihydroxy-tetrahydrofuran-2-yl)methyl pivalate]
sub G1 ratio change (SNU-354 cells [3]): 5.7
Caspase-3 activity ([4]; 5 μM): 8.2
Caspase-3 activity ([4]; 10 μM): 7.8

CCC(=O)OC[C@@H]1O[C@H](n2c(Br)c(C(N)=O)c3c(N)ncnc32)[C@@H](O)[C@@H]1O [Example 6, ((2S,3S,4S,5S)-5-(4-amino-6-bromo-5-carbamoyl-7H-pyrrolo[2,3-d]pyrimidin-7-yl)-3,4-dihydroxytetrahydrofuran-2-yl)methyl propionate]
sub G1 ratio change (SNU-354 cells [3]): 5.9
Caspase-3 activity ([4]; 5 μM): 10.7
Caspase-3 activity ([4]; 10 μM): 11.7

CC(=O)O[C@H]1[C@H](OC(C)=O)[C@@H](n2cnc(N)c3c(C(N)=O)c(Br)nc2-3)O[C@H]1COC(=O)C(C)C [Example 4, (2S,3S,4R,5S)-2-(4-amino-6-bromo-5-carbamoyl-1H-pyrrolo[2,3-d]pyrimidin-1-yl)-5-(isobutyryloxymethyl)tetrahydrofuran-3,4-diyl diacetate]
sub G1 ratio change (SNU-354 cells [3]): 5.5
Caspase-3 activity ([4]; 5 μM): 5.1
Caspase-3 activity ([4]; 10 μM): 7.0

NC(=O)c1c(Br)n([C@H]2O[C@@H](COC(=O)c3ccccc3)[C@@H](O)[C@@H]2O)c2ncnc(N)c12 [Example 5, ((2S,3S,4S,5S)-5-(4-amino-6-bromo-5-carbamoyl-7H-pyrrolo[2,3-d]pyrimidin-7-yl)-3,4-dihydroxytetrahydrofuran-2-yl)methyl benzoate]
sub G1 ratio change (SNU-354 cells [3]): 5.5 and 6.0
Caspase-3 activity ([4]; 5 μM): 9.0
Caspase-3 activity ([4]; 10 μM): 10.3

CC[C@H](CO)Nc1nc(NCc2ccccc2)c2ncn(C(C)C)c2n1 [Roscosvitine, roscosvitine, reference compound]
Cdk7 activity (Cdk7/cyclin H/MAT1; 10 nM): 92.0%
Cdk7 activity (Cdk7/cyclin H/MAT1; 100 nM): 43.4%
Cdk7 activity (Cdk7/cyclin H/MAT1; 1000 nM): 17.4%
Cdk9 activity (Cdk9/cyclin T1; 10 nM): 55.6%
Cdk9 activity (Cdk9/cyclin T1; 100 nM): 44.6%
Cdk9 activity (Cdk9/cyclin T1; 1000 nM): 42.2%
Cdk7 activity (Cdk7; 0.1 nM): 96.0%
Cdk7 activity (Cdk7; 0.5 nM): 73.1%
Cdk7 activity (Cdk7; 1 nM): 51.5%
Cdk7 activity (Cdk7; 5 nM): 51.6%
Cdk7 activity (Cdk7; 10 nM): 49.9%
Cdk7 activity (Cdk7; 50 nM): 4.0%
Cdk9 activity (Cdk9; 0.1 nM): 69.3%
Cdk9 activity (Cdk9; 0.5 nM): 48.5%
Cdk9 activity (Cdk9; 1 nM): 38.1%
Cdk9 activity (Cdk9; 5 nM): 35.7%
Cdk9 activity (Cdk9; 10 nM): 34.6%
Cdk9 activity (Cdk9; 50 nM): 2.2%
^3H-thymidine incorporation (%) (SNU-354 cells [2]; 5.0 μM): 98.2%
^3H-thymidine incorporation (%) (SNU-354 cells [2]; 10.0 μM): 91.0%
^3H-thymidine incorporation (%) (SNU-354 cells [2]; 50.0 μM): 47.2%
